In patent US9695155B2, “Herbicidal substituted pyrimidinyloxy benzene compounds” (E. I. DU PONT DE NEMOURS AND COMPANY, priority 2013, dated 2017):

Tests used:
[1] = tested on: rice; experiment: Test B flooded paddy test; assay type: in vivo, Oryza sativa; details: Flood, 250 g ai/ha; 0 to 100 scale where 0 is no effect and 100 is complete control
Outline: (§1)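 Post-emergence paddy-water application at the 2-leaf stage, with 3 cm flood kept for the whole test. Response was judged visually relative to controls after 13 to 15 greenhouse days, 0 indicating no effect and 100 complete control.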

[2] = tested on: morningglory; experiment: Test C postemergence; assay type: in vivo, Ipomoea coccinea; details: for Plant response rating (0 to 100), Morningglory: 16 g ai/ha, 0 is no effect, 100 is complete control; for Morningglory plant response rating: 31 g ai/ha; for Morningglory plant response rating / Plant response rating, Morningglory: scale 0 to 100 (0 no effect, 100 complete control)
Outline: (§2)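 Rated visually on 0–100 (100 = complete control) after 13–15 days under glass. Treatments went onto freshly seeded loam/sand soil or onto emerged plants at the 1- to 4-leaf stage, using a surfactant-containing solvent formulation.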

[3] = tested on: chickweed; experiment: Test C postemergence; assay type: in vivo, Stellaria media; details: for Plant response rating (0 to 100), Chickweed: 16 g ai/ha, 0 is no effect, 100 is complete control; for Chickweed plant response rating: 31 g ai/ha; for Chickweed plant response rating / Plant response rating, Chickweed: scale 0 to 100 (0 no effect, 100 complete control)
Outline: as §2

[4] = tested on: pigweed; experiment: Test A postemergence; assay type: in vivo, Amaranthus retroflexus
Outline: (§3)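 Scoring: eye-based comparison with untreated controls, 0 for no effect through 100 for complete control, at about day 10. Treatments: directed soil spray preemergence; foliar spray postemergence on 2–10 cm plants at the one- to two-leaf stage. Medium: loam soil with sand.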

[5] = tested on: giant foxtail; experiment: Test C postemergence; assay type: in vivo, Setaria faberii; details: for Plant response rating (0 to 100), Foxtail, Giant: 16 g ai/ha, 0 is no effect, 100 is complete control; for Foxtail, Giant plant response rating: 31 g ai/ha; for Foxtail, Giant plant response rating / Plant response rating, Foxtail, Giant: scale 0 to 100 (0 no effect, 100 complete control)
Outline: as §2

[6] = tested on: yellow nutsedge; experiment: Test C postemergence; assay type: in vivo, Cyperus esculentus; details: for Plant response rating (0 to 100), Nutsedge, Yellow: 16 g ai/ha, 0 is no effect, 100 is complete control; for Nutsedge, Yellow plant response rating: 31 g ai/ha; for Nutsedge, Yellow plant response rating / Plant response rating, Nutsedge, Yellow: scale 0 to 100 (0 no effect, 100 complete control)
Outline: as §2

[7] = tested on: barnyardgrass; experiment: Test C postemergence; assay type: in vivo, Echinochloa crus-galli; details: for Plant response rating (0 to 100), Barnyardgrass: 16 g ai/ha, 0 is no effect, 100 is complete control; for Barnyardgrass plant response rating: 31 g ai/ha; for Barnyardgrass plant response rating / Plant response rating, Barnyardgrass: scale 0 to 100 (0 no effect, 100 complete control)
Description: Seeds of plant species selected from blackgrass (Alopecurus myosuroides), Italian ryegrass (Lolium multiflorum), wheat, winter (winter wheat, Triticum aestivum), galium (catchweed bedstraw, Galium aparine), corn (Zea mays), large (Lg) crabgrass (Digitaria sanguinalis), giant foxtail (Setaria faberii), johnsongrass (Sorghum halepense), lambsquarters (Chenopodium album), morningglory (Ipomoea coccinea), yellow nutsedge (Cyperus esculentus), pigweed (Amaranthus retroflexus), ragweed (common ragweed, Ambrosia elatior), soybean (Glycine max), barnyardgrass (Echinochloa crus-galli), oilseed rape (Brassica napus), waterhemp (common waterhemp, Amaranthus rudis), kochia (Kochia scoparia), wild oat (Avena fatua), surinam grass (Brachiaria decumbens), foxtail, green (green foxtail, Setaria viridis), goosegrass (Eleusine indica), bromegrass, downy (downy bromegrass, Bromus tectorum), nightshade (eastern black nightshade, Solanum ptycanthum), cocklebur (common cocklebur, Xanthium strumarium), cupgrass, woolly (woolly cupgrass, Eriochloa villosa), bermudagrass (Cynodon dactylon), sunflower, (common oilseed sunflower, Helianthus annuus), Russian thistle (Salsola kali), and velvetleaf (Abutilon theophrasti) were planted into a blend of loam soil and sand and treated preemergence with test chemicals formulated in a non-phytotoxic solvent mixture which included a surfactant.
At the same time, plants selected from these crop and weed species and also barley, winter (winter barley, Hordeum vulgare), windgrass (Apera spica-venti), chickweed (common chickweed, Stellaria media), deadnettle (henbit deadnettle, Lamium amplexicaule), and canarygrass (littleseed canarygrass, Phalaris minor) were planted in pots containing Redi-Earth® planting medium (Scotts Company, 14111 Scottslawn Road, Marysville, Ohio 43041) comprising spaghnum peat moss, vermiculite, wetting agent and starter nutrients and treated with postemergence applications of test chemicals formulated in the same manner. Plants ranged in height from 2 to 18 cm (1- to 4-leaf stage) for postemergence treatments. Treated plants and controls were maintained in a greenhouse for 13 to 15 days, after which time all species were compared to controls and visually evaluated. Plant response ratings, summarized in Table C, are based on a scale of 0 to 100 where 0 is no effect and 100 is complete control. A dash (-) response means no test result.

[8] = tested on: barnyardgrass; experiment: Test B flooded paddy test; assay type: in vivo, Echinochloa crus-galli; details: Flood, 250 g ai/ha; 0 to 100 scale where 0 is no effect and 100 is complete control
Outline: as §1

[9] = tested on: sedge, umbrella; experiment: Test B flooded paddy test; assay type: in vivo, Cyperus difformis; details: Flood, 250 g ai/ha; 0 to 100 scale where 0 is no effect and 100 is complete control
Outline: as §1

[10] = tested on: wild oat; experiment: Test C postemergence; assay type: in vivo, Avena fatua; details: for Plant response rating (0 to 100), Oat, Wild: 16 g ai/ha, 0 is no effect, 100 is complete control; for Oat, Wild plant response rating: 31 g ai/ha; for Oat, Wild plant response rating / Plant response rating, Oat, Wild: scale 0 to 100 (0 no effect, 100 complete control)
Outline: as §2

[11] = tested on: large (Lg) crabgrass; experiment: Test C postemergence; assay type: in vivo, Digitaria sanguinalis; details: for Plant response rating (0 to 100), Crabgrass, Large: 16 g ai/ha, 0 is no effect, 100 is complete control; for Crabgrass, Large plant response rating: 31 g ai/ha; for Crabgrass, Large plant response rating / Plant response rating, Crabgrass, Large: scale 0 to 100 (0 no effect, 100 complete control)
Outline: as §2

[12] = tested on: lambsquarters; experiment: Test C postemergence; assay type: in vivo, Chenopodium album; details: for Plant response rating (0 to 100), Lambsquarters: 16 g ai/ha, 0 is no effect, 100 is complete control; for Lambsquarters plant response rating: 31 g ai/ha; for Lambsquarters plant response rating / Plant response rating, Lambsquarters: scale 0 to 100 (0 no effect, 100 complete control)
Outline: as §2

[13] = tested on: barnyardgrass; experiment: Test A preemergence; assay type: in vivo, Echinochloa crus-galli; details: for Barnyardgrass plant response rating (0 to 100 scale, 0 is no effect, 100 is complete control): 125 g ai/ha; for Barnyardgrass plant response rating: 500 g ai/ha, 0 to 100 scale where 0 is no effect and 100 is complete control
Outline: as §3

[14] = tested on: barnyardgrass; experiment: Test A postemergence; assay type: in vivo, Echinochloa crus-galli
Outline: as §3

[15] = postemergence, visual rating, 13 to 15 days
[16] = 125 g ai/ha, postemergence, visual rating
[17] = Postemergence, 62 g ai/ha, 13 to 15 days
[18] = 125 g ai/ha, 0 to 100 scale, 0 no effect, 100 complete control
[19] = 500 g ai/ha, 0 to 100 scale where 0 is no effect and 100 is complete control

## N#Cc1cn(-c2c(C#N)cccc2Oc2ncc(Cl)cn2)nn1 [Compound 273]
[1]
  Plant response rating, Rice: 0
[2]; postemergence
  Plant response rating (0 to 100), Morningglory: 60
[2]; [15]
  Morningglory plant response rating: 65
[2]; [16]
  Plant response rating, Morningglory: 85
[2]; [17]
  Plant response rating, Morningglory: 65
[3]; postemergence
  Plant response rating (0 to 100), Chickweed: 10
[3]; [15]
  Chickweed plant response rating: 30
[3]; [16]
  Plant response rating, Chickweed: 70
[3]; [17]
  Plant response rating, Chickweed: 35
[4]; [18]
  Plant response rating, Pigweed: 100
[4]; [19]
  Plant response rating, Pigweed: 100
[5]; postemergence
  Plant response rating (0 to 100), Foxtail, Giant: 10
[5]; [15]
  Foxtail, Giant plant response rating: 40
[5]; [16]
  Plant response rating, Foxtail, Giant: 20
[5]; [17]
  Plant response rating, Foxtail, Giant: 10
[6]; postemergence
  Plant response rating (0 to 100), Nutsedge, Yellow: 10
[6]; [15]
  Nutsedge, Yellow plant response rating: 5
[6]; [16]
  Plant response rating, Nutsedge, Yellow: 25
[6]; [17]
  Plant response rating, Nutsedge, Yellow: 5
[7]; postemergence
  Plant response rating (0 to 100), Barnyardgrass: 5
[7]; [15]
  Barnyardgrass plant response rating: 5
[7]; [16]
  Plant response rating, Barnyardgrass: 10
[7]; [17]
  Plant response rating, Barnyardgrass: 5
[8]
  Plant response rating, Barnyardgrass: 0
[9]
  Plant response rating, Sedge, Umbrella: 75
[10]; postemergence
  Plant response rating (0 to 100), Oat, Wild: 5
[10]; [15]
  Oat, Wild plant response rating: 5
[10]; [16]
  Plant response rating, Oat, Wild: 10
[10]; [17]
  Plant response rating, Oat, Wild: 5
[11]; postemergence
  Plant response rating (0 to 100), Crabgrass, Large: 5
[11]; [15]
  Crabgrass, Large plant response rating: 5
[11]; [16]
  Plant response rating, Crabgrass, Large: 10
[11]; [17]
  Plant response rating, Crabgrass, Large: 10
[12]; postemergence
  Plant response rating (0 to 100), Lambsquarters: 25
[12]; [15]
  Lambsquarters plant response rating: 40
[12]; [16]
  Plant response rating, Lambsquarters: 80
[12]; [17]
  Plant response rating, Lambsquarters: 85
[13]
  Barnyardgrass plant response rating (0 to 100 scale, 0 is no effect, 100 is complete control): 70
  Barnyardgrass plant response rating: 90
[14]; [18]
  Plant response rating, Barnyardgrass: 70
[14]; [19]
  Plant response rating, Barnyardgrass: 90

## N#Cc1cnn(-c2c(Oc3ncc(F)cn3)cccc2C(F)F)c1 [Compound 240]
[1]
  Plant response rating, Rice: 0
[2]; postemergence
  Plant response rating (0 to 100), Morningglory: 30
[2]; [15]
  Morningglory plant response rating: 65
[2]; [16]
  Plant response rating, Morningglory: 90
[2]; [17]
  Plant response rating, Morningglory: 75
[3]; postemergence
  Plant response rating (0 to 100), Chickweed: 5
[3]; [15]
  Chickweed plant response rating: 5
[3]; [16]
  Plant response rating, Chickweed: 55
[3]; [17]
  Plant response rating, Chickweed: 55
[4]; [18]
  Plant response rating, Pigweed: 100
[4]; [19]
  Plant response rating, Pigweed: 100
[5]; postemergence
  Plant response rating (0 to 100), Foxtail, Giant: 0
[5]; [15]
  Foxtail, Giant plant response rating: 35
[5]; [16]
  Plant response rating, Foxtail, Giant: 40
[5]; [17]
  Plant response rating, Foxtail, Giant: 20
[6]; postemergence
  Plant response rating (0 to 100), Nutsedge, Yellow: 0
[6]; [15]
  Nutsedge, Yellow plant response rating: 0
[6]; [16]
  Plant response rating, Nutsedge, Yellow: 5
[6]; [17]
  Plant response rating, Nutsedge, Yellow: 0
[7]; postemergence
  Plant response rating (0 to 100), Barnyardgrass: 0
[7]; [15]
  Barnyardgrass plant response rating: 10
[7]; [16]
  Plant response rating, Barnyardgrass: 20
[7]; Postemergence, 62 g ai/ha
  Plant response rating, Barnyardgrass: 10
[8]
  Plant response rating, Barnyardgrass: 0
[9]
  Plant response rating, Sedge, Umbrella: 30
[10]; postemergence
  Plant response rating (0 to 100), Oat, Wild: 0
[10]; [15]
  Oat, Wild plant response rating: 0
[10]; [16]
  Plant response rating, Oat, Wild: 0
[10]; [17]
  Plant response rating, Oat, Wild: 0
[11]; postemergence
  Plant response rating (0 to 100), Crabgrass, Large: 10
[11]; [15]
  Crabgrass, Large plant response rating: 5
[11]; [16]
  Plant response rating, Crabgrass, Large: 20
[11]; [17]
  Plant response rating, Crabgrass, Large: 5
[12]; postemergence
  Plant response rating (0 to 100), Lambsquarters: 15
[12]; [15]
  Lambsquarters plant response rating: 45
[12]; [16]
  Plant response rating, Lambsquarters: 90
[12]; [17]
  Plant response rating, Lambsquarters: 75
[13]
  Barnyardgrass plant response rating (0 to 100 scale, 0 is no effect, 100 is complete control): 90
  Barnyardgrass plant response rating: 100
[14]; [18]
  Plant response rating, Barnyardgrass: 90
[14]; [19]
  Plant response rating, Barnyardgrass: 100
